Values of other authors as cited in patent US9700578B2, “Use of nitrite salts for the treatment of cardiovascular conditions” (The United States of America as represented by the …, priority 2003, dated 2017).

Target: deoxyhemoglobin (Homo sapiens, UniProt P68871+P69905)
Details: 25° C., pH 7.0; cited from earlier work

Sequence of deoxyhemoglobin (P69905 2-142 limits assumed): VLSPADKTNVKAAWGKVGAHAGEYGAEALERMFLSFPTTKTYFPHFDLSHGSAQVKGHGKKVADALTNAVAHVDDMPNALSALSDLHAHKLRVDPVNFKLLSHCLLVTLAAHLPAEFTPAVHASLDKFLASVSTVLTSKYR
Sequence of deoxyhemoglobin (P68871 2-147 limits assumed): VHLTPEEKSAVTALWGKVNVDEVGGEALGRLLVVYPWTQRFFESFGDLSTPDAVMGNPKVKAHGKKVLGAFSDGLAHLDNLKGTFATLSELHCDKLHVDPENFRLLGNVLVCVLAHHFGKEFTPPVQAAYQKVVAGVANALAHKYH

For `O=NO` [sodium nitrite], the “rate constant of nitrite reduction to NO and methemoglobin” value is listed as 2.9 M⁻¹ s⁻¹.
